The compounds below were run against rat orexin 1 receptor (Rattus norvegicus, UniProt P56718) (assay: Rat orexin 1 receptor radioligand binding (competitive, [3H]-SB674042, HEK293 cell preparations)). Conditions: rOX1 Ki (nm).

Compound	Ki [nM]
Cc1ccc(-n2nccn2)c(C(=O)N2C3CCC2C(COc2ccc(C(F)(F)F)cn2)C3)n1 (racemic) [Example 47, (±)-(6-methyl-3-(2H-1,2,3-triazol-2-yl)pyridin-2-yl)(2-(((5-(trifluoromethyl)pyridin-2-yl)oxy)methyl)-7-azabicyclo[2.2.1]heptan-7-yl)methanone]	460
CCOc1ccc(C)nc1C(=O)N1C2CCC1C(COc1ccc(Br)cn1)C2 (racemic) [Example 51, (±)-(2-(((5-bromopyridin-2-yl)oxy)methyl)-7-azabicyclo[2.2.1]heptan-7-yl)(3-ethoxy-6-methylpyridin-2-yl)methanone]	974

Same assay, conditions: rat orexin 1 receptor, [3H]-SB674042 competition binding; read-out: rOX1 Ki (nm)

Compound	Ki [nM]
CCOc1ccc(C)nc1C(=O)N1C2CCC1C(COc1ccc(C(F)(F)F)cn1)C2 (racemic) [Example 48, (±)-(3-ethoxy-6-methylpyridin-2-yl)(2-(((5-(trifluoromethyl)pyridin-2-yl)oxy)methyl)-7-azabicyclo[2.2.1]heptan-7-yl)methanone]	3900
COc1c(F)cccc1C(=O)N1C2CCC1C(COc1ccc(Br)cn1)C2 (racemic) [Example 50, (±)-(2-(((5-bromopyridin-2-yl)oxy)methyl)-7-azabicyclo[2.2.1]heptan-7-yl)(3-fluoro-2-methoxyphenyl)methanone]	460

Each compound was assayed against human orexin 2 receptor (Homo sapiens (Human), UniProt O43614) (assay: Human orexin 2 receptor radioligand binding (competitive, [3H]-EMPA, HEK293 cell preparations)). Conditions: hOX2 Ki (nm).
human orexin 2 receptor, sequence (O43614 whole entry): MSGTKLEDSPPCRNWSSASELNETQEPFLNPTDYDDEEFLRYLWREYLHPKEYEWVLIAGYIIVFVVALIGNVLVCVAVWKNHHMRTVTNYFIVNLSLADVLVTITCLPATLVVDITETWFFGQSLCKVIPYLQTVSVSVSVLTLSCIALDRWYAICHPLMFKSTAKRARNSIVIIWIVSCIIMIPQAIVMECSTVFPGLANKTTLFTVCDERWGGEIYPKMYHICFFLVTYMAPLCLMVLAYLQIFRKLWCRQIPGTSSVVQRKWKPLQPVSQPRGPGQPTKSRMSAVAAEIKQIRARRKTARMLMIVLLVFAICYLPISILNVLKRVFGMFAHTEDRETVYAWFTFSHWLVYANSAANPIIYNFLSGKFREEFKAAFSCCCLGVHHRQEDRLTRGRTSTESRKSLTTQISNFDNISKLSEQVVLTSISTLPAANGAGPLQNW

Compound	Ki [nM]
Cc1ccc(-n2nccn2)c(C(=O)N2C3CCC2C(COc2ccccn2)C3)n1 (racemic) [Example 4, (±)-(6-methyl-3-(2H-1,2,3-triazol-2-yl)pyridin-2-yl)(2-((pyridin-2-yloxy)methyl)-7-azabicyclo[2.2.1]heptan-7-yl)methanone]	927
CCOc1ccccc1C(=O)N1C2CCC1C(COc1nc(C)cc(C)n1)C2 (racemic) [Example 42, (±)-(2-(((4,6-dimethylpyrimidin-2-yl)oxy)methyl)-7-azabicyclo[2.2.1]heptan-7-yl)(2-ethoxyphenyl)methanone]	253
CCOc1ccc(C)nc1C(=O)N1C2CCC1C(COc1ccc(C(F)(F)F)cn1)C2 (racemic) [Example 48, (±)-(3-ethoxy-6-methylpyridin-2-yl)(2-(((5-(trifluoromethyl)pyridin-2-yl)oxy)methyl)-7-azabicyclo[2.2.1]heptan-7-yl)methanone]	4700
CCOc1ccc(C)nc1C(=O)N1C2CCC1C(COc1ccc(Br)cn1)C2 (racemic) [Example 51, (±)-(2-(((5-bromopyridin-2-yl)oxy)methyl)-7-azabicyclo[2.2.1]heptan-7-yl)(3-ethoxy-6-methylpyridin-2-yl)methanone]	1800
Cc1ccc(-n2nccn2)c(C(=O)N2[C@@H]3CC[C@H]2[C@H](COc2ccccn2)C3)n1 [Example 5A, (6-methyl-3-(2H-1,2,3-triazol-2-yl)pyridin-2-yl)((1S,2R,4R)-2-((pyridin-2-yloxy)methyl)-7-azabicyclo[2.2.1]heptan-7-yl)methanone]	428
Cc1ccc(-n2nccn2)c(C(=O)N2C3CCC2C(COc2ccccn2)C3)n1 [Example 6, (6-methyl-3-(2H-1,2,3-triazol-2-yl)pyridin-2-yl)((1S,2R,4R)-2-((pyridin-2-yloxy)methyl)-7-azabicyclo[2.2.1]heptan-7-yl)methanone]	428

Same assay, conditions: human orexin 2 receptor, [3H]-EMPA competition binding; read-out: hOX2 Ki (nm)

Compound	Ki [nM]
Cc1ccc(-n2nccn2)c(C(=O)N2C3CCC2C(COc2ccc(F)cn2)C3)c1 (racemic) [Example 9, (±)-(2-(((5-fluoropyridin-2-yl)oxy)methyl)-7-azabicyclo[2.2.1]heptan-7-yl)(5-methyl-2-(2H-1,2,3-triazol-2-yl)phenyl)methanone]	57
Cc1ccc(-n2nccn2)c(C(=O)N2C3CCC2C(COc2ccc(C(F)(F)F)cn2)C3)n1 (racemic) [Example 47, (±)-(6-methyl-3-(2H-1,2,3-triazol-2-yl)pyridin-2-yl)(2-(((5-(trifluoromethyl)pyridin-2-yl)oxy)methyl)-7-azabicyclo[2.2.1]heptan-7-yl)methanone]	418
COc1c(F)cccc1C(=O)N1C2CCC1C(COc1ccc(Br)cn1)C2 (racemic) [Example 50, (±)-(2-(((5-bromopyridin-2-yl)oxy)methyl)-7-azabicyclo[2.2.1]heptan-7-yl)(3-fluoro-2-methoxyphenyl)methanone]	4400
COc1c(F)cccc1C(=O)N1C2CCC1C(COc1ccc(F)cn1)C2 (racemic) [Example 107, (±)-((3-fluoro-2-methoxyphenyl)(2-(((5-fluoropyridin-2-yl)oxy)methyl)-7-azabicyclo[2.2.1]heptan-7-yl)methanone]	2200
COc1c(F)cccc1C(=O)N1C2CCC1C(COc1ccc(F)cn1)C2 (racemic) [Example 173, (±)-(3-fluoro-2-methoxyphenyl)(2-(((5-fluoropyridin-2-yl)oxy)methyl)-7-azabicyclo[2.2.1]heptan-7-yl)methanone]	3000
O=C(c1cc(F)ccc1-c1ncccn1)N1[C@@H]2CC[C@H]1[C@H](COc1ccccn1)C2 [Example 1, (5-fluoro-2-(pyrimidin-2-yl)phenyl)((1S,2R,4R)-2-((pyridin-2-yloxy)methyl)-7-azabicyclo[2.2.1]heptan-7-yl)methanone]	276
Cc1ccc(-n2nccn2)c(C(=O)N2[C@@H]3CC[C@H]2[C@H](COc2ccc(F)cn2)C3)c1 [Example 10A, ((1S,2R,4R)-2-(((5-fluoropyridin-2-yl)oxy)methyl)-7-azabicyclo[2.2.1]heptan-7-yl)(5-methyl-2-(2H-1,2,3-triazol-2-yl)phenyl)methanone]	32
CCOc1ccc2ccccc2c1C(=O)N1[C@@H]2CC[C@H]1[C@H](Nc1cnc(C(F)(F)F)cn1)C2 [Example 239, (2-ethoxynaphthalen-1-yl)((1S,2R,4R)-2-((5-(trifluoromethyl)pyrazin-2-yl)amino)-7-azabicyclo[2.2.1]heptan-7-yl)methanone]	490
CCOc1ncc2ccccc2c1C(=O)N1[C@@H]2CC[C@H]1[C@H](Nc1cnc(C(F)(F)F)cn1)C2 [Example 246, (3-ethoxyisoquinolin-4-yl)((1S,2R,4R)-2-((5-(trifluoromethyl)pyrazin-2-yl)amino)-7-azabicyclo[2.2.1]heptan-7-yl)methanone]	1020
O=C(c1cccc(F)c1-n1nccn1)N1[C@@H]2CC[C@H]1[C@H](Nc1cnc(C(F)(F)F)cn1)C2 [Example 252, (3-fluoro-2-(2H-1,2,3-triazol-2-yl)phenyl)((1S,2R,4R)-2-((5-(trifluoromethyl)pyrazin-2-yl)amino)-7-azabicyclo[2.2.1]heptan-7-yl)methanone]	1230
O=C(c1cc(F)ccc1-n1nccn1)N1[C@@H]2CC[C@H]1[C@H](Nc1cnc(C(F)(F)F)cn1)C2 [Example 256, (5-fluoro-2-(2H-1,2,3-triazol-2-yl)phenyl)((1S,2R,4R)-2-((5-(trifluoromethyl)pyrazin-2-yl)amino)-7-azabicyclo[2.2.1]heptan-7-yl)methanone]	1100
O=C(c1cccc(F)c1-c1cnccn1)N1[C@@H]2CC[C@H]1[C@H](Nc1cnc(C(F)(F)F)cn1)C2 [Example 265, (3-fluoro-2-(pyrazin-2-yl)phenyl)-((1S,2R,4R)-2-((5-(trifluoromethyl)pyrazin-2-yl)amino)-7-azabicyclo[2.2.1]heptan-7-yl)methanone]	188
Cc1cccc(C(=O)N2[C@@H]3CC[C@H]2[C@H](Nc2cnc(C(F)(F)F)cn2)C3)c1-c1ncccn1 [Example 273, (3-methyl-2-(pyrimidin-2-yl)phenyl)((1S,2R,4R)-2-((5-(trifluoromethyl)pyrazin-2-yl)amino)-7-azabicyclo[2.2.1]heptan-7-yl)methanone]	328
Cc1cccc(C(=O)N2[C@@H]3CC[C@H]2[C@H](Nc2ncc(C(F)(F)F)cn2)C3)c1-c1ncccn1 [Example 281, (3-methyl-2-(pyrimidin-2-yl)phenyl)((1S,2R,4R)-2-((5-(trifluoromethyl)pyrimidin-2-yl)amino)-7-azabicyclo[2.2.1]heptan-7-yl)methanone]	1200
Cc1cccc(C(=O)N2[C@@H]3CC[C@H]2[C@H](Nc2ncc(C(F)(F)F)cn2)C3)c1-c1ncco1 [Example 283, (3-methyl-2-(oxazol-2-yl)phenyl)((1S,2R,4R)-2-((5-(trifluoromethyl)pyrimidin-2-yl)amino)-7-azabicyclo[2.2.1]heptan-7-yl)methanone]	417
COc1cccc(-c2ncccn2)c1C(=O)N1[C@@H]2CC[C@H]1[C@H](Nc1cnc(C(F)(F)F)cn1)C2 [Example 289, (2-methoxy-6-(pyrimidin-2-yl)phenyl)((1S,2R,4R)-2-((5-(trifluoromethyl)pyrazin-2-yl)amino)-7-azabicyclo[2.2.1]heptan-7-yl)methanone]	173
O=C(c1c(F)cccc1-c1ncccn1)N1[C@@H]2CC[C@H]1[C@H](Nc1cnc(C(F)(F)F)cn1)C2 [Example 290, (2-fluoro-6-(pyrimidin-2-yl)phenyl)((1S,2R,4R)-2-((5-(trifluoromethyl)pyrazin-2-yl)amino)-7-azabicyclo[2.2.1]heptan-7-yl)methanone]	558
CCOc1ccc2cccnc2c1C(=O)N1[C@@H]2CC[C@H]1[C@H](Nc1cnc(C(F)(F)F)cn1)C2 [Example 291, (7-ethoxyquinolin-8-yl)((1S,2R,4R)-2-((5-(trifluoromethyl)pyrazin-2-yl)amino)-7-azabicyclo[2.2.1]heptan-7-yl)methanone]	425
Cc1cccc(C(=O)N2[C@@H]3CC[C@H]2[C@H](Nc2ncc(C(F)(F)F)cn2)C3)c1-c1ccccn1 [Example 293, (3-methyl-2-(pyridin-2-yl)phenyl)((1S,2R,4R)-2-((5-(trifluoromethyl)pyrimidin-2-yl)amino)-7-azabicyclo[2.2.1]heptan-7-yl)methanone]	1100
O=C(c1cccc(F)c1-n1nccn1)N1[C@@H]2CC[C@H]1[C@H](Nc1ccc(C(F)(F)F)cn1)C2 [Example 294, (3-fluoro-2-(2H-1,2,3-triazol-2-yl)phenyl)((1S,2R,4R)-2-((5-(trifluoromethyl)pyridin-2-yl)amino)-7-azabicyclo[2.2.1]heptan-7-yl)methanone]	1200
Cc1cccc(C(=O)N2[C@@H]3CC[C@H]2[C@H](Nc2ccc(C(F)(F)F)cn2)C3)c1-n1nccn1 [Example 295, (3-methyl-2-(2H-1,2,3-triazol-2-yl)phenyl)((1S,2R,4R)-2-((5-(trifluoromethyl)pyridin-2-yl)amino)-7-azabicyclo[2.2.1]heptan-7-yl)methanone]	257
Cc1cccc(C(=O)N2[C@@H]3CC[C@H]2[C@H](Nc2ccc(C(F)(F)F)cn2)C3)c1-c1ncco1 [Example 296, (3-methyl-2-(oxazol-2-yl)phenyl)((1S,2R,4R)-2-((5-(trifluoromethyl)pyridin-2-yl)amino)-7-azabicyclo[2.2.1]heptan-7-yl)methanone]	114

Same assay, conditions: read-out: hOX2 Ki (nm)

Compound	Ki [nM]
O=C(c1ccccc1-n1nccn1)N1C2CCC1C(Nc1cnc(C(F)(F)F)cn1)C2 (single isomer, unassigned) [Example 183a]	> 10000
Cc1ccc(-n2nccn2)c(C(=O)N2[C@H]3CC[C@@H]2[C@@H](COc2ccccn2)C3)n1 [Example 5B, (6-methyl-3-(2H-1,2,3-triazol-2-yl)pyridin-2-yl)((1R,2S,4S)-2-((pyridin-2-yloxy)methyl)-7-azabicyclo[2.2.1]heptan-7-yl)methanone]	> 10000

Reference: US9062078B2, “Substituted 7-azabicyles and their use as orexin receptor modulators” (priority 2013, dated 2015)
